# Experimental data: the supplement of paper PMC10307832
# Assays:
# Assay in all cases: relative viability (nuclei count vs DMSO), 5 days (fraction); higher = more cells survive
# [1] = compound: CC1=C(C=C(C=C1)NC(=O)C2=CC(=CC=C2)C(C)(C)C#N)NC3=CC4=C(C=C3)N=CN(C4=O)C [AZ628] + O=C(c1cc(Cc2n[nH]c(=O)c3ccccc23)ccc1F)N1CCN(C(=O)C2CC2)CC1 [Olaparib] (partner 8 µM)
# How it was run: (§1)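 A single step with final 0.05% Triton X-100, 1% formaldehyde and 1 ug/ml Hoechst fixed the cells and stained nuclei 5 days after treatment. Lung cancer cell lines in 1536-well plates had been treated by pin tool the day after seeding with one drug alone or a fixed anchor-drug dose plus five library-drug doses (not always all listed) in √10 steps, and nuclei were counted on 4× images. Relative viability is the ratio of nuclei in treated wells to nuclei in vehicle wells, taken as the median of duplicate plates.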
# [2] = compound: C[As](C)SC[C@H](NC(=O)CC[C@H](N)C(=O)O)C(=O)NCC(=O)O [Darinaparsin] + Nc1ncn([C@H]2C[C@H](O)[C@@H](CO)O2)c(=O)n1 [Decitabine] (partner 2 µM)
# How it was run: as §1
# [3] = compound: C[As](C)SC[C@H](NC(=O)CC[C@H](N)C(=O)O)C(=O)NCC(=O)O [Darinaparsin] + CS(=O)(=O)CCNCc1ccc(-c2ccc3ncnc(Nc4ccc(OCc5cccc(F)c5)c(Cl)c4)c3c2)o1 [Lapatinib] (partner 2 µM)
# How it was run: as §1
# [4] = compound: CC1=C(C=C(C=C1)NC(=O)C2=CC(=CC=C2)C(C)(C)C#N)NC3=CC4=C(C=C3)N=CN(C4=O)C [AZ628] + CCNC(=O)c1noc(-c2cc(C(C)C)c(O)cc2O)c1-c1ccc(CN2CCOCC2)cc1 [Luminespib] (partner 0.01 µM)
# How it was run: as §1
Cell Line,relative viability ([1]; first compound 0.08 µM),relative viability ([1]; first compound 0.253 µM),relative viability ([1]; first compound 0.8 µM),relative viability ([1]; first compound 2.53 µM),relative viability ([1]; first compound 8 µM),relative viability ([2]; first compound 0.08 µM),relative viability ([2]; first compound 0.8 µM),relative viability ([2]; first compound 2.53 µM),relative viability ([2]; first compound 8 µM),relative viability ([3]; first compound 0.08 µM),relative viability ([3]; first compound 0.8 µM),relative viability ([3]; first compound 2.53 µM),relative viability ([3]; first compound 8 µM),relative viability ([4]; first compound 0.08 µM),relative viability ([4]; first compound 0.253 µM),relative viability ([4]; first compound 0.8 µM),relative viability ([4]; first compound 2.53 µM),relative viability ([4]; first compound 8 µM)
201T,0.909,0.865,0.908,0.868,0.926,0.853,0.83,0.875,0.861,1.05,1.03,1.02,0.76,1.07,1.02,1.14,1.05,1.14
A549,0.299,0.28,0.495,0.348,0.199,–,0.209,0.229,0.291,1.45,1.05,1.01,1.06,–,–,–,–,–
A-427,0.85,0.73,0.773,0.691,0.541,0.569,0.517,0.581,0.493,1.08,1.06,1.04,1.22,1.08,0.805,0.76,0.775,0.555
ABC-1,0.987,0.712,0.868,0.508,0.732,1.16,1.09,1.1,0.953,1.11,1.18,1.16,1.47,0.717,0.699,0.929,0.838,0.536
BEN,1.26,0.912,0.995,1.03,1.02,0.724,0.72,0.812,0.811,0.844,0.77,0.671,0.743,0.51,0.251,0.485,0.938,0.221
CAL-12T,0.713,0.68,0.781,0.637,0.457,–,–,–,–,0.698,0.557,0.775,0.68,0.591,0.371,0.376,0.465,0.466
COR-L23,0.459,0.365,0.444,0.448,0.317,0.496,0.394,0.348,0.496,1.41,0.811,0.716,1.16,0.687,0.737,0.709,0.655,0.404
COR-L 105,0.754,0.83,0.704,0.684,0.816,0.642,0.711,0.621,0.666,0.388,0.388,–,0.349,0.828,0.591,0.761,0.86,0.635
Calu-6,0.595,0.491,0.496,0.41,0.16,–,–,–,–,1.45,1.14,1.09,1.06,–,–,–,–,–
ChaGo-K-1,0.456,0.389,0.422,0.452,0.453,0.464,0.499,0.506,0.577,–,–,–,–,0.546,0.642,0.456,0.504,0.461
